From US6630449B2, “Method for reducing the effect of nicotine addiction and dependancy” (priority 2000, dated 2003)
Where two headings read alike, the source gives them in different places.

What was measured:
[1] = system: smoker (craving for nicotine); test: Treatment of smokers with corticotrophin injection to reduce craving for nicotine (case examples); format: in vivo, human
Excerpt: Referring to the FIG. a suitable and preferred process for the treatment of smokers includes nutritional and relaxant supplements, corticotrophin administration, and counseling. On day one, the smoker comes into a clinic for orientation 10. At the time of the first office visit, a medical history is taken and a physical given 12 is taken by the physician, and a determination is made as to whether a given smoker is a satisfactory candidate for treatment 14. […] If the smoker is allowed to participate in the program, the physician will write a prescription of r the needed medications. Then, immediately before the smoker leaves the clinic, a pharmacist fills their prescription for and dispenses to the smoker their supply of nutrition supplements and mild relaxants 16. The next day, day two, the smoker has the first BMS 18. Then on day three the smoker comes back to the clinic and receives the first injection of corticotrophins 20 from the physician. This is the time and place the smoker gives up smoking 22. On day five the smoker participates in a second BMS 24. On day seven, the smoker returns to receive the second injection of corticotrophins 26 from the physician. On day fourteen the smoker, now presumably a former smoker, returns for the last BMS 28. […]

[2] = system: smokers (craving for nicotine); conditions: cited from earlier work; for time after first administration at which the effect starts to wear off / duration of nicotine craving relief: after injection

Substance: Adrenocorticotrophin hormone
- smoking cessation outcome ([1]; about 250 pounds, three packs a day, one injection of 160 units with counseling and nutritional supplements, no second injection): ceased smoking permanently
- smoking cessation outcome ([1]; comparative example, about 170 pounds, over one pack a day, one injection of 160 units, no appropriate counseling): resumed smoking
- time after first administration at which the effect starts to wear off / duration of nicotine craving relief ([2]; listed as Corticotrophins): fifty and one hundred
- time after first administration at which the effect starts to wear off / duration of nicotine craving relief ([2]; listed as corticotrophins): About seventy two
- effect on craving for nicotine ([2]; given to smokers intramuscularly): dramatically reduce the craving for nicotine
- patients who start smoking again ([2]; one administration (Bourne treatment), after about thirty days): thirty to sixty
- duration of reduced cravings for nicotine after one administration ([2]; one administration (Bourne treatment)): thirty
